Assay results: patent US12059420B2 (BRISTOL-MYERS SQUIBB COMPANY, priority 2018, dated 2024)
Where a name gives a salt, the structure may show the parent alone.

Target: T1, human IDO1 (Homo sapiens, UniProt P14902)
T1 construct: expressed in transfected cells
Test: IDO inhibition assay in HEK293 cells stably expressing human IDO1 (kynurenine production, Ehrlich reagent, absorbance 490 nm)
Type: cell-based
Conditions: 20 hours incubation with compound, 500 nM reference standard = 100% inhibition, read-out: IDO1 HEK Human IC50
In short: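 HEK293 clones stably expressing human IDO1 (10,000 cells/well, phenol red-free RPMI, 10% FBS) were treated with compound for 20 hours at 37° C. After 0.2% TCA and 30 min at 50° C., kynurenine was read with Ehrlich reagent at 490 nm. IC50 was normalised to DMSO (0%) and 500 nM reference standard (100%).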

T1 sequence (P14902 whole entry): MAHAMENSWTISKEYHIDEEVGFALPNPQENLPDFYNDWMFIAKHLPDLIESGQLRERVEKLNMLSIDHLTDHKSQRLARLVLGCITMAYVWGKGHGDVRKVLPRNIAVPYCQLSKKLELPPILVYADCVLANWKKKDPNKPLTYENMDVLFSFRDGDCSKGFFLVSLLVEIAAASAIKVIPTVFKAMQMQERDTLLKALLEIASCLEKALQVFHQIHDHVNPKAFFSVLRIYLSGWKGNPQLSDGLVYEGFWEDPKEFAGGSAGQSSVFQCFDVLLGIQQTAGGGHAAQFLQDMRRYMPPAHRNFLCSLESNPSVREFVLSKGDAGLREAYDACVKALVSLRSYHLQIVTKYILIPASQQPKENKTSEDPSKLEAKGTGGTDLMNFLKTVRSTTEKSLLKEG

| Structure (SMILES) | IC50 |
| --- | --- |
| Cc1ccc(NC(=O)Nc2cc(-c3ccccc3-c3nnn[nH]3)nc(N3CCc4ccccc4C3)n2)cc1 [Example 93, 1-(6-(2-(1H-tetrazol-5-yl)phenyl)-2-(3,4-dihydroisoquinolin-2(1H)-yl)pyrimidin-4-yl)-3-(p-tolyl)urea] | 3170 nM |
| CC(C)CN(CC(C)C)c1cc(NC(=O)Nc2ccccc2F)cc(-c2ccccc2C(=O)O)n1 [Example 252, 2-(6-(diisobutylamino)-4-(3-(2-fluorophenyl)ureido)pyridin-2-yl)benzoic acid] | 972 nM |
| CC(C)CN(Cc1ccccc1)c1cc(Nc2cc(F)ccc2C(=O)O)cc(-c2ccccc2-c2nnn[nH]2)n1 [Example 185, 2-((2-(2-(1H-tetrazol-5-yl)phenyl)-6-(benzyl(isobutyl)amino)pyridin-4-yl)amino)-4-fluorobenzoic acid] | 2740 nM |
| CC(C)CN(Cc1ccccc1)c1cc(NC(=O)c2ccc(F)c(F)c2)cc(-c2ccccc2-c2nnn[nH]2)n1 [Example 236, N-(2-(2-(1H-tetrazol-5-yl)phenyl)-6-difluorobenzamide (benzyl(isobutyl)amino)pyridin-4-yl)-3,4-] | 687 nM |
| CCCN(Cc1ccccc1)c1cc(NC(=O)Cc2ccc(C#N)cc2)cc(-c2ccccc2-c2nn[nH]n2)n1 [Example 290, N-(2-(2-(1H-Tetrazol-5-yl)phenyl)-6-(benzyl(propyl)amino)pyridin-4-yl)-2-(4-cyanophenyl)acetamide] | 483 nM |
| CCCN(c1cc(NC(=O)Nc2ccc(C)cc2)cc(-c2ccccc2-c2nnn[nH]2)n1)C1CCOCC1 [Example 109, 1-(2-(2-(1H-tetrazol-5-yl)phenyl)-6-(propyl(tetrahydro-2H-pyran-4-yl)amino)pyridin-4-yl)-3-(p-tolyl)urea] | 4120 nM |
| CCN(CCC(F)(F)F)c1nc(NC(=O)Nc2ccc(C)cc2)cc(-c2ccccc2-c2nnn[nH]2)n1 [Example 99, 1-(6-(2-(1H-tetrazol-5-yl)phenyl)-2-(ethyl(3,3,3-trifluoropropyl)amino)pyrimidin-4-yl)-3-(p-tolyl)urea] | 3660 nM |
| CCCN(Cc1ccccc1)c1cc(NC(=O)CC2CCC(C)CC2)cc(-c2ccccc2-c2nnn[nH]2)n1 (stereo not shown) [Example 294] | 774 nM |
| CC(C)CN(CC(C)C)c1cc(NC(=O)Nc2ccccc2F)cc(-c2cc(F)ccc2C(=O)O)n1 [Example 251, 2-(6-(diisobutylamino)-4-(3-(2-fluorophenyl)ureido)pyridin-2-yl)-4-fluorobenzoic acid] | 2000 nM |
| CC(C)CN(Cc1ccccc1)c1cc(Nc2ccc(C(=O)O)cc2F)cc(-c2ccccc2-c2nnn[nH]2)n1 [Example 166, 4-((2-(2-(1H-tetrazol-5-yl)phenyl)-6-(benzyl(isobutyl)amino)pyridin-4-yl)amino)-3-fluorobenzoic acid] | 4050 nM |
| CCCN(Cc1ccccc1)c1cc(NC(=O)Cc2c(C)noc2C)cc(-c2ccccc2-c2nn[nH]n2)n1 [Example 213, N-(2-(2-(2H-tetrazol-5-yl)phenyl)-6-(benzyl(propyl)amino)pyridin-4-yl)-2-(3,5-dimethylisoxazol-4-yl)acetamide] | 651 nM |
| O=C(Nc1ccc(OC(F)(F)F)cc1)Nc1cc(-c2ccccc2-c2nnn[nH]2)nc(N(Cc2ccccc2)Cc2ccccc2)c1 [Example 273, 1-(2-(2-(1H-Tetrazol-5-yl)phenyl)-6-(dibenzylamino)pyridin-4-yl)-3-(4-(trifluoromethoxy)-phenyl)urea] | 609 nM |
| CCCN(Cc1ccccc1)c1cc(NC(=O)C2CCCCC2)cc(-c2cc(C)ccc2-c2nnn[nH]2)n1 [Example 304, N-(2-(Benzyl(propyl)amino)-6-(5-methyl-2-(1H-tetrazol-5-yl)phenyl)pyridin-4-yl)cyclohexanecarboxamide] | 1310 nM |

Now those with a lower IC50, led by results:

| IC50 | Structure (SMILES) |
| --- | --- |
| 4.7 nM | CCC(CC(=O)O)c1cc(Nc2ccc(Cl)cc2)cc(N(Cc2ccc(F)cc2)C(C)C)n1 (racemic) [Example 246, 3-(4-((4-chlorophenyl)amino)-6-((4-fluorobenzyl)(isopropyl)amino)pyridin-2-yl)pentanoic acid] |
| 256 nM | CCCN(Cc1ccccc1)c1cc(NC(=O)Nc2ccc(C)cc2)cc(-c2ccccc2S(=O)(=O)NC(C)=O)n1 [Example 35, N-((2-(6-(benzyl (propyl)amino)-4-(3-(p-tolyl)ureido)pyridin-2-yl)phenyl)sulfonyl) acetamide] |
| 10.5 nM | Cc1cc(Nc2cc(-c3ccccc3-c3nnn[nH]3)nc(N(Cc3ccccc3)CC(C)C)c2)ccc1C#N [Example 176, 4-((2-(2-(1H-tetrazol-5-yl)phenyl)-6-(benzyl(isobutyl)amino)pyridin-4-yl)amino)-2-methylbenzonitrile] |
| 334 nM | CCCN(CC1CC1)c1cc(NC(=O)Cc2ccc(F)cc2)cc(-c2ccccc2-c2nnn[nH]2)n1 [Example 73, N-(2-(2-(1H-tetrazol-5-yl)phenyl)-6-((cyclopropylmethyl)(propyl)amino)pyridin-4-yl)-2-(4-fluorophenyl)acetamide, TFA] |
| 52.6 nM | CCCN(Cc1ccccc1)c1cc(NC(=O)Cc2ccc(C(C)C)cc2)cc(-c2ccccc2-c2nn[nH]n2)n1 [Example 220, N-(2-(2-(2H-tetrazol-5-yl)phenyl)-6-(benzyl(propyl)amino)pyridin-4-yl)-2-(4-isopropylphenyl)acetamide] |
| 4.3 nM | CC(C)CN(Cc1ccccc1)c1cc(Nc2ccc(F)c(F)c2)cc(-c2ccccc2-c2nnn[nH]2)n1 [Example 181, 6-(2-(1H-tetrazol-5-yl)phenyl)-N2-benzyl-N4-(3,4-difluorophenyl)-N2-isobutylpyridine-2,4-diamine] |
| 13.2 nM | CCCN(Cc1ccc(F)cc1)c1cc(NC(=O)Nc2ccc(Cl)cc2F)cc(-c2ccccc2-c2noc(=O)[nH]2)n1 [Example 13, 1-(4-chloro-2-fluorophenyl)-3-(2-((4-fluorobenzyl)(propyl)amino)-6-(2-(5-oxo-4,5-dihydro-1,2,4-oxadiazol-3-yl)phenyl)pyridin-4-yl)urea] |
| 256 nM | CCCN(Cc1ccccc1)c1cc(NC(=O)Nc2ccc(C)cc2)cc(-c2ccccc2C(=O)NS(C)(=O)=O)n1 [Example 24, 2-(6-(benzyl(propyl)amino)-4-(3-(p-tolyl)ureido)pyridin-2-yl)-N-(methylsulfonyl)benzamide] |
| 101 nM | Cc1ccc(Nc2cc(-c3ccccc3-c3nnn[nH]3)nc(N(Cc3ccccc3)CC(C)C)c2)c(C#N)c1 [Example 187, 2-((2-(2-(1H-tetrazol-5-yl)phenyl)-6-(benzyl(isobutyl)amino)pyridin-4-yl)amino)-5-methylbenzonitrile] |
| 302 nM | CCCN(Cc1ccccc1)c1cc(NC(=O)Nc2ccc(C)cc2)cc(-c2ccccc2C(N)=O)n1 [Example 38, 2-(6-(benzyl (propyl)amino)-4-(3-(p-tolyl)ureido)pyridin-2-yl) benzamide] |
| 36.8 nM | Cc1ccc(Nc2cc(-c3ccccc3-c3nnn[nH]3)nc(N(Cc3ccccc3)CC(C)C)c2)nc1 [Example 142, 6-(2-(1H-tetrazol-5-yl)phenyl)-N2-benzyl-N2-isobutyl-N4-(5-methylpyridin-2-yl)pyridine-2,4-diamine] |
| 1.1 nM | CC(C)CN(Cc1ccccc1)c1cc(Nc2ccc(Cl)cc2)cc(-c2ccccc2-c2nnn[nH]2)n1 [Example 171, 6-(2-(1H-tetrazol-5-yl)phenyl)-N2-benzyl-N4-(4-chlorophenyl)-N2-isobutylpyridine-2,4-diamine] |
